Assay results: patent publication US7919488B2, “Therapeutic compounds” (Pfizer Inc., priority 2006, dated 2011)
Structures can show the parent of a compound that is named as a salt.

Legend:
Format in all cases: biochemical
CYP3A4 [1] = molecular target: T1, CYP3A4 (Homo sapiens, UniProt P08684); experiment: IC50 against CYP3A4 by inhibition of testosterone metabolism in human liver microsomes; details: 0.1 mg/mL human liver microsomes, 25 μM testosterone, 1 mM NADPH, 6-β-OH-testosterone production, eight minutes; read-out: IC50, μM (HLM, testosterone)
T1 construct: 0.1 mg/mL human liver microsomes; from tissue; host or cells: human liver microsomes
T1 sequence (P08684 whole entry): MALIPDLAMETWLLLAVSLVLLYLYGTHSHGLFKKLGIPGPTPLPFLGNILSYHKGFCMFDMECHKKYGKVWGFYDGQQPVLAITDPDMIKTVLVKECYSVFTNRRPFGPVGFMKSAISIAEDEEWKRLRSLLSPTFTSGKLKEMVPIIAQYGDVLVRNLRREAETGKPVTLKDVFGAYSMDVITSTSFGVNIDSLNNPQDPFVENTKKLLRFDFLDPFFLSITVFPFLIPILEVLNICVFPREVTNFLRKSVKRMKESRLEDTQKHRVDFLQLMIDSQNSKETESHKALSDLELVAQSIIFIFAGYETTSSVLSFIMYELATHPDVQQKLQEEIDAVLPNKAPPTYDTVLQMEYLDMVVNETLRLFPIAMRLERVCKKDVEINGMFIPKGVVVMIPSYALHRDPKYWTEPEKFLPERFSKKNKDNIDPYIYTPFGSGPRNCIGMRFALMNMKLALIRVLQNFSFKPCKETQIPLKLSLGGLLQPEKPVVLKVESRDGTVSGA
Method: 2. Determination of IC50 Against CYP3A4 by Measurement of Inhibition of Testosterone Metabolism
This assay was performed using a standard 96 well plate design. […] Quantitation of metabolite peak area ratio against an internal standard is determined by LC-MS/MS analysis. The production of 6-β-OH-testosterone from testosterone metabolism is determined after incubation for eight minutes by comparison to a standard curve generated for the metabolite
(§1) Samples were analyzed in the MRM mode using a Sciex API 3000 mass spectrometer (Applied Biosystems, Foster City, Calif.) with a Paradigm MS4 binary pump (Michrom BioResources Inc., Auburn, Calif.) and a LEAP CTC PAL autosampler (LEAP Technologies, Carrboro, N.C.). A Phenomenex Synergi, 4μ, Polar-RP, 10×2.0 mm column (Phenomenex, Torrance, Calif.) was used for separation with a mobile phase composition of: 0.1% formic acid in water (A) and: 0.1% formic acid in methanol (B). The following gradient was used: […]
(§2) The sample injection volume was 10 μL and flow was split post-column with 0.4 mL/min going to the mass spectrometer. Analysis was performed using the following API 3000 mass spectrometer settings: […]

[2] = molecular target: T2, recombinant CYP3A4-b5 enzyme (Baculosomes®) (Homo sapiens, UniProt P08684); experiment: Kiapp against recombinant CYP3A4 enzyme (Baculosomes), BFC substrate; details: recombinant CYP3A4-b5 (Invitrogen), 5 uM BFC, 200 uM NADPH, pre-incubation at least 30 minutes, pH 7.0, room temperature
T2 construct: purchased Invitrogen (Carlsbad, Calif.)
T2 sequence (P08684 whole entry): as above
Method: 1. Determination of Compound Kiapp
A determination of the Kiapp of the compounds of the invention against recombinant CYP3A4 enzyme was performed as follows. The assay was performed in a 100 mM sodium phosphate buffer pH 7.0, 5 mM TCEP and containing 2% dimethylformamide (final concentration) upon addition of substrate and inhibitor. A typical reaction for the determination of Kiapp values was carried at room temperature in a solid black Costar u-bottom 96-well polypropylene plate. […] When pre-incubation was completed (˜30 min), the reaction was initiated by adding NADPH (200 uM, final concentration), and 7-benzyloxy-4-(trifluoromethyl)-coumarin (BFC) (5 uM, final concentration). The oxidation of the coumarin substrate was recorded by a 96-well plate reader POLARstar (BMG LABTECH, Offenburg, Germany).
The initial reaction velocities were measured during the first 5 min of the reaction when the release of the fluorescent product is linear with time, in the absence and in the presence of various concentrations of inhibitors.
The fluorescent substrate BFC was purchased from Sigma (St Louis, Mo.). Two commercial sources of recombinant enzymes were used in this study: recombinant CYP3A4-b5 enzyme (Baculosomes®) was purchased from Invitrogen (Carlsbad, Calif.) and the recombinant CYP3A4+b5 enzyme (Supersomes®) was purchased from BD Biosciences (Woburn, Mass.).

CYP3A4 [3] = molecular target: T1, CYP3A4; experiment: IC50 against CYP3A4 by inhibition of midazolam metabolism in human liver microsomes; details: 0.1 mg/mL human liver microsomes, 2 μM midazolam, 1 mM NADPH, 1-hydroxymidazolam production, eight minutes; read-out: IC50, μM (HLM, midazolam)
Method: 3. Determination of IC50 Against CYP3A4 by Measurement of Inhibition of Midazolam Metabolism
This assay was performed using a standard 96 well plate design. […] The incubation substrate mix contains 2 μM midazolam, 0.1 mg/mL human liver microsomes, 1 mM NADPH, and potassium phosphate buffer (100 mM, pH 7.4). Quantitation of metabolite peak area ratio against internal standard is determined by LC-MS/MS analysis. The production of 1-hydroxymidazolam from midazolam metabolism is determined after incubation for eight minutes by comparison to a standard curve generated for the metabolite.
as §1, §2

Structure (SMILES) | IC50 (CYP3A4 [1]) | Ki [2] | IC50 (CYP3A4 [3])
Fc1ccc(Cc2cc(-c3ccncc3)nn2Cc2nc(-c3ncccn3)no2)cc1 [Example 25, 2-(5-{[5-(4-fluorobenzyl)-3-pyridin-4-yl-1H-pyrazol-1-yl]methyl}-1,2,4-oxadiazol-3-yl)pyrimidine] | < 0.012 µM | 0.0568 µM | 0.045 µM
CN(C)C(=O)c1noc(Cn2nc(-c3ccncc3)cc2Cc2ccc(F)cc2)n1 [Example 27, 5-{[5-(4-fluorobenzyl)-3-pyridin-4-yl-1H-pyrazol-1-yl]methyl}-N,N-dimethyl-1,2,4-oxadiazole-3-carboxamide (maleic acid salt)] | 0.021 µM | 0.12 µM | 0.086 µM
Cc1nnc(Cn2nc(-c3ccncc3)cc2Cc2ccc(F)cc2)o1 [Example 28, 4-{5-(4-fluorobenzyl)-1-[(5-methyl-1,3,4-oxadiazol-2-yl)methyl]-1H-pyrazol-3-yl}pyridine] | 0.0305 µM | 0.608 µM | 0.0792 µM
OCCn1nc(Cc2ccc(F)cc2)cc1-c1ccncc1 [Example 30, 2-[3-(4-fluorobenzyl)-5-pyridin-4-yl-1H-pyrazol-1-yl]ethanol] | 0.446 µM | 0.646 µM | 0.773 µM
COCCn1nc(-c2ccncc2)cc1Cc1ccc(F)cc1 [Example 31, 4-(5-(4-fluorobenzyl)-1-(2-methoxyethyl)-1H-pyrazol-3-yl)pyridine] | 0.0225 µM | 0.105 µM | 0.0466 µM
OCCCn1nc(-c2ccncc2)cc1Cc1ccc(F)cc1 [Example 32, 3-(5-(4-fluorobenzyl)-3-(pyridin-4-yl)-1H-pyrazol-1-yl)propan-1-ol] | 0.015 µM | 0.12 µM | 0.061 µM
O=C(Cn1nc(-c2c[nH]cn2)cc1Cc1ccc(F)cc1)N1CCC[C@@H](O)C1 [Example 40, (3R)-1-{[5-(4-fluorobenzyl)-3-(1H-imidazol-4-yl)-1H-pyrazol-1-yl]acetyl}piperidin-3-ol] | > 0.75 µM | > 1 µM | 0.446 µM
CC(O)Cn1nc(-c2ccncc2)cc1Cc1ccc(F)cc1 (stereo not drawn) [Example 52, 1-[5-(4-fluorobenzyl)-3-pyridin-4-yl-1H-pyrazol-1-yl]propan-2-ol] | 0.056 µM | 0.175 µM | 0.071 µM
O=C(Cn1nc(-c2ccncc2)cc1Cc1ccc(F)cc1)NC1CCC1 [Example 53, N-cyclobutyl-2-[5-(4-fluorobenzyl)-3-pyridin-4-yl-1H-pyrazol-1-yl]acetamide] | 0.095 µM | 0.034 µM | 0.028 µM
CC(C)(CN1CCOCC1)NC(=O)Cn1nc(-c2ccncc2)cc1Cc1ccc(F)cc1 [Example 54, N-(1,1-dimethyl-2-morpholin-4-ylethyl)-2-[5-(4-fluorobenzyl)-3-pyridin-4-yl-1H-pyrazol-1-yl]acetamide] | < 0.012 µM | 0.0085 µM | < 0.012 µM
O=C(Cn1nc(-c2ccncc2)cc1Cc1ccc(F)cc1)NCCN1CCOCC1 [Example 55, 2-[5-(4-fluorobenzyl)-3-pyridin-4-yl-1H-pyrazol-1-yl]-N-(2-morpholin-4-ylethyl)acetamide] | < 0.012 µM | 0.101 µM | 0.044 µM
O=C(Cn1nc(-c2ccncc2)cc1Cc1ccc(F)cc1)N1CCN(c2ncccn2)CC1 [Example 56, 2-(4-{[5-(4-fluorobenzyl)-3-pyridin-4-yl-1H-pyrazol-1-yl]acetyl}piperazin-1-yl)pyrimidine] | < 0.012 µM | 0.0303 µM | < 0.012 µM
CC(C)(N)CNC(=O)Cn1nc(-c2ccncc2)cc1Cc1ccc(F)cc1 [Example 57, N-(2-amino-2-methylpropyl)-2-[5-(4-fluorobenzyl)-3-pyridin-4-yl-1H-pyrazol-1-yl]acetamide] | 0.062 µM | 0.124 µM | 0.064 µM
CC(C)NC(=O)Cn1nc(-c2ccncc2)cc1Cc1ccc(F)cc1 [Example 58, 2-[5-(4-fluorobenzyl)-3-pyridin-4-yl-1H-pyrazol-1-yl]-N-isopropylacetamide] | 0.027 µM | 0.103 µM | 0.043 µM
